Results on eight compounds are retold here after patent US8097238B2, “Cell targeting conjugates” (Peter MacCallum Cancer Institute, priority 2004, dated 2012).

One test concerns DNA. As to conditions: literature values; cited from earlier work.
Another test deals with plasmid DNA. Nature of the test: Plasmid DNA breakage, ^124I/^125I double isotope experiments. In kind it is biochemical. The source says:
In experiments exactly analogous to those described in Example 25, induction of DNA double-strand breaks was investigated for ^124I-iodoHoechst 33258. The results of preliminary experiments (to our knowledge the first such experiments done with DNA-associated ^124I) are shown in FIG. 15 and Table 4.

In test [1] the test system is K562 cells. Nature of the test: Accumulation of cell-associated ^125I-activity in K562 cells. In kind it is cell-based, human. As to conditions: 200 nM protein, 37° C. As for the experimental part: At the required time intervals (0-20 hours), the cell-associated and extracellular ^125I-ligands were separated by centrifugation at 400×g for 3 minutes and the cell-associated ^125I-activity and the ^125I-activity in the supernatants were counted in a […] (80% counting efficiency; Perkin Elmer Inc.). To elucidate whether the meta-^127I/^125I-iodoHoechst-transferrin conjugates were internalized specifically via transferrin receptor mediated endocytosis, assays were performed in parallel in the presence of 100-fold molar excess of unlabelled diferric transferrin.
In parallel with the experiment described in Example 19, cultures of K562 cells with one of the three labeled DNA ligand—transferring conjugates were incubated at 0° C., a condition that inhibits receptor-mediated endocytosis. Other assays were performed in parallel at 37° C. in the presence of the metabolic inhibitors […] (50 mM) and sodium azide (0.1% (w/v)), which are known to inhibit transferrin receptor mediated endocytosis (Ciechanover, et al. 1983).

Test [2] deals with K562 nuclei. The experiment in a line: Accumulation of nuclear-associated ^125I-activity in K562 nuclei. The conditions noted are these: 200 nM protein, 37° C. It is filed as cell-based, human. As for the experimental part: After incubation for 5 minutes at 0° C., an equal volume of hypotonic buffer containing 1% (v/v) Triton X-100 was added while vortexing, and the cells were sheared by passage through a 22-gauge needle. The nuclei were separated from the cytosol by centrifugation at 1000×g for 10 minutes and the nuclear preparations were washed in hypotonic buffer and pipetted to avoid clumping. The concentration of nuclei isolated from each sample was determined by counting with a hemocytometer and the nuclear- and cytoplasm-associated ^125I-activity was determined by β-counting. In parallel assays, the nuclei were washed with 10 mM Tris-HCl, 140 mM NaCl, pH 8.3 (isotonic buffer) by centrifugation at 1000×g for 10 minutes and the nuclear associated ^125I-activity and the ^125I-activity in the supernatants was determined by β-counting.

The test system of test [3] is K562 cells. Nature of the test: Clonogenic survival of K562 cells after ^125I-ligand incubation. It is filed as cell-based, human. As to conditions: 20 hours at 37° C., 200 nM protein. As for the experimental part: K562 cells were washed three times in serum-free RPMI 1640 containing 20 mM HEPES and 80 I.U./ml gentamicin. In the representative experiment, cells (5×10^5 per ml) were incubated with a series of radioactive doses of ^125I-diferric transferrin (highest dose 3.8 μCi/ml; specific activity 18.9 Ci/mmole, 200 nM protein concentration) or with a series of radioactive doses of the required meta-^127I/^125I-iodoHoechst-transferrin conjugate (highest doses 17.5, 10.1 and 18.3 μCi/ml, specific activities 87.5, 53.3 and 98 Ci/mmole protein for the disulphide, acylhydrazone and amide linked meta-^127I/^125I-iodoHoechst-transferrin conjugates, respectively, protein concentration 200 nM, conjugation number 2.8, 2.9 and 3.1 for the disulphide, acylhydrazone and amide linked conjugates, respectively) for 20 hours at 37° C. To ensure that cytotoxicity was mediated by decay of ^125I, control assays were performed in parallel with unlabelled meta-^127I-iodoHoechst-transferrin conjugates. Furthermore, to determine whether the ^125I-induced cytotoxicity was mediated by transferrin receptor-mediated endocytosis, control assays were performed in parallel in the presence of a 50-fold molar excess of unlabelled diferric transferrin. Following incubation, the cell-pellets were isolated by centrifugation at 400×g for 3 minutes and suspended in the α-modification of Eagle's medium containing 20% (v/v) fetal bovine serum, 20 mM HEPES, 2 mM L-glutamine and 80 I.U./ml gentamicin. An appropriate cell number from each of the samples was then cloned in semi-solid (0.33% (w/v)) noble agar in 6-well microtiter plates.

In test [4] the test system is K562 nuclei. The experiment in a line: Nuclear fluorescence of K562 cells after photolytic deiodination (quantitative fluorescence microscopy). In kind it is cell-based, human. The protocol:
The delivery of ortho-iodoHoechst to K562 nuclei following incubation of cells with the acylhydrazone linked transferrin-ortho-iodoHoechst conjugate was examined by quantitative fluorescence microscopy, after photolytic deiodination. K562 cells in RPMI 1640 containing 3% FBS, 20 mM HEPES and 80 I.U./ml gentamicin were incubated with the acylhydrazone linked conjugate ([…], conjugation number 1.5) for 24 hours at 37° C. Following incubation the cells were irradiated with 200 Jm^−2 UVA to generate in situ the dehalogenated ligand, which is much more fluorescent than the iodinated ligand. The cells were then washed by centrifugation and the cell-pellet was resuspended in 50 μl PBS without Ca^2+/Mg^2+. Aliquots (20 μl) were placed onto microscope slides and were allowed to air-dry. Prior to microscopy a drop of 30% PBS and 100 μM dithiothreitol in Tissuetek was added to the cells. K562 cells were observed using a fluorescence microscope (Zeiss) and a standard Hoechst filter set. Analysis of nuclear fluorescence was performed using a Bio-Rad Molecular Imager® Fx (Bio-Rad Laboratories, Hercules, Calif., USA) and Quantity One™ 4.1.1 software.

[5] abbreviates: incubation period between 4-20 hours.

“And” between values parts separate entries of the source, which are not always exact repeats. Identical values can stand only once. Starred links: 1 amine or outer side, 2 acyl side, 3 side chain; linkers in the order of their positions; H or OH if unused. Positions of bridges follow the written chain, without caps; N, C: chain ends. Non-standard residues stand in square brackets, D forms with d. Residues, ends and D or L forms follow the SMILES beside them. Chains are numbered I, II in the order given. Actinocin(9to1) = Cc1c2oc3c(C)ccc(C(=O)[*:1])c3nc-2c(C(=O)[*:2])c(N)c1=O; NMeV = CN[C@H](C(=O)O)C(C)C; Sar = CNCC(=O)O

`Cc1c2oc3c(C)ccc(C(=O)N[C@@H]4C(=O)N[C@H](C(C)C)C(=O)N5CCC[C@H]5C(=O)N(C)CC(=O)N(C)[C@@H](C(C)C)C(=O)O[C@@H]4C)c3nc-2c(C(=O)N[C@@H]2C(=O)N[C@H](C(C)C)C(=O)N3CCC[C@H]3C(=O)N(C)CC(=O)N(C)[C@@H](C(C)C)C(=O)O[C@@H]2C)c(N)c1=O` [Actinomycin D] (I: T[dV]P[Sar][NMeV] / II: T[dV]P[Sar][NMeV]; ester I:1-I:C, II:1-II:C; linker I:N-II:N via Actinocin(9to1)): the “association constant for equilibrium binding to DNA (affinity)” value in the test with DNA was “about 10^6 M^−1”.
Take `CN1CCN(c2ccc3nc(-c4ccc5nc(-c6ccc(O)c(I)c6)[nH]c5c4)[nH]c3c2)CC1` [^124I-iodoHoechst 33258]: the “efficiency of DNA-associated decays in DNA double-strand break induction” value with plasmid DNA (compared with the ^123I counterpart) is “at least as efficient as those of the ^123I counterpart”. Also, in the test on plasmid DNA (preliminary experiments), the “da1(^124I)/da2(^125I)” value is 0.76 and 0.71 and 0.82 and 0.75. The “Average da1(^124I)/da2(^125I)” value in the test on plasmid DNA (samples A2, A3, B1, B2) is recorded as 0.76 ± 0.05.
As to `COc1cccc2c1C(=O)c1c(O)c3c(c(O)c1C2=O)C[C@@](O)(C(=O)CO)C[C@@H]3O[C@H]1C[C@H](N)[C@H](O)[C@H](C)O1` [doxorubicin], the “association constant for equilibrium binding to DNA (affinity)” value with DNA is reported as “about 10^6 M^−1”.
“^125I-transferrin: ^125I-labelled human diferric transferrin, unconjugated comparator [reference compound]”: the “rate of increase of cell-associated ^125I-activity” value was “approximately 0.8 fmoles ^125I-ligand/cell/minute” in the test on K562 cells [1] (after first 2 hours until approximately 4-5 hours) and “approximately 5.2 fmoles ^125I-ligand/cell/minute” in the test on K562 cells [1] (approximately the first 2 hours of incubation). For the same compound, the “rate of decrease in cell-associated ^125I-activity” value with K562 cells [1] (incubation period between 5-20 hours) was “approximately 0.2 fmoles ^125I-ligand/cell/minute”. Also, in the test with K562 nuclei [2], the “accumulation of ^125I-activity in the nuclei” value is given as “not observed”. For the same compound, the “dose required to produce on average one lethal event per cell (D37)” value (shortened to “dose required to produce … per cell (D37)”) in the test on K562 cells [3] is 31.8 μCi/ml.
Take “acylhydrazone linked meta-^127I/^125I-iodoHoechst-transferrin conjugate: meta-^127I/^125I-iodoHoechst conjugated to thiolated transferrin via an acylhydrazone linkage (Example 15, FIG. 3)”: the “rate of increase of cell-associated ^125I-activity” value with K562 cells [1] (first 4 hours of incubation) was ~10.4 fmoles ^125I-ligand/cell/minute; with K562 cells [1] (setting [5]), ~5.7 fmoles ^125I-ligand/cell/minute. In addition, the “rate of increase of nuclear-associated ^125I-activity” value with K562 nuclei [2] is recorded as 0.38 fmole ^125I-ligand/cell/minute. Further, the “dose required to produce … per cell (D37)” value in the test on K562 cells [3] is reported as 3.8 μCi/ml.
Turning to “acylhydrazone linked transferrin-ortho-iodoHoechst conjugate: transferrin linked to ortho-iodoHoechst via an acylhydrazone linkage, conjugation number 1.5”, in the test with K562 nuclei [4] (conjugation number 1.5, 24 hours at 37° C., then 200 Jm^−2 UVA), the “nuclear fluorescence in K562 cell nuclei” value is “significant fluorescence”. The “inhibition of nuclear fluorescence” value in the test with K562 nuclei [4] (in the presence of 100-fold molar excess unmodified transferrin) is recorded as “largely inhibited”.
Regarding “amide linked meta-^127I/^125I-iodoHoechst-transferrin conjugate: meta-^127I/^125I-iodoHoechst conjugated to transferrin via an amide linkage (Example 16, FIG. 4)”, the results for the “rate of increase of cell-associated ^125I-activity” value in the test on K562 cells [1] (first 4 hours of incubation) and in the test with K562 cells [1] (setting [5]) were ~3.6 fmoles ^125I-ligand/cell/minute and ~2.6 fmoles ^125I-ligand/cell/minute, respectively. Further, the “rate of increase of nuclear-associated ^125I-activity” value in the test with K562 nuclei [2] is on record as 0.13 fmole ^125I-ligand/cell/minute. For the same compound, in the test on K562 cells [3], the “dose required to produce … per cell (D37)” value stood at 8.9 μCi/ml.
For “disulphide linked meta-^127I/^125I-iodoHoechst-transferrin conjugate: meta-^127I/^125I-iodoHoechst conjugated to thiolated transferrin via a disulphide linkage (Example 14, FIG. 2)” the same measures were “approximately 7.2 fmoles ^125I-ligand/cell/minute”, “approximately 6.1 fmoles ^125I-ligand/cell/minute”, 0.21 fmole ^125I-ligand/cell/minute and 6.0 μCi/ml.
